Results as given in US20250179057A1, “MEK IMMUNE ONCOLOGY INHIBITORS AND THERAPEUTIC USES THEREOF” (Immuneering Corporation, priority 2022, published 2025).
Values after ≈ are worked out from the molar mass of the structure shown. Counter-ions that a name gives are not always drawn.

Key:
[1] = Hepatocyte stability, human; type: in vitro ADME; conditions: 0.5 million cells/ml; for half-life at 2 μM: human hepatocytes, 120 min; for CLint scaled at 2 μM: human, hepatocytes
Method: (§1) In this study, human, cynomolgus monkey, beagle dog, wistar hannover rat, and balb/c mouse hepatocyle stability was determined.

[2] = Caco-2 bidirectional permeability (absorption & efflux); conditions: human
PAMPA (pH 7.4) = type: in vitro ADME; conditions: PAMPA; pH = 7.4 (Table 14)
[3] = Plasma stability, rat plasma (Wistar Han / wistar hannover; Table 5 head SD Rat); type: in vitro ADME; conditions: wistar hannover rat plasma, 2 μM, anti-coagulant K2-EDTA; for half-life at 2 μM: pH 7.4, read-out: T1/2; for % Remaining at T120: 120 min
Method: Individual stock solutions of propantheline and lovastatin were prepared at 10 mM in DMSO and were further diluted to 2 mM with DMSO.
Frozen matrices (Balb/c mouse, Wistar Han rat, Beagle dog, and human plasma containing K2EDTA as anti-coagulant) were thawed and centrifuged at 3100 rpm for 10 minutes at 4° C. to remove particulates. The lipid layer was then removed, and the supernatant was transferred to a new tube without disturbing the pellet. After the matrices were incubated at 37° C. for at least 10 minutes, the pH of each matrix was adjusted to pH 7.4, using 10% phosphoric acid or 1N sodium hydroxide as necessary. Test and control article stock solutions were spiked (2 μL) into matrix (1.998 mL) and mixed to final assay concentration of […]. Duplicate 30-μL aliquots of spiked plasma were transferred to matrix tubes in 96-well plate immediately after spiking for timepoints of 0, 30, 60, 120, 240, and 360 minutes. These tubes were then incubated at 37° C. with shaking and at each timepoint, the corresponding tubes containing samples were quenched with 180 μL of cold acetonitrile containing the internal standards. The quenched samples were vortex-mixed briefly and stored refrigerated. After the final time point (360 minutes), the plates with all quenched samples were vortex-mixed for 10 minutes and then centrifuged at 3100 rpm for 10 minutes at 4° C. to sediment the precipitated protein. The supernatant (50 μL) was transferred to a clean 96-well plate and diluted with 100 μL of water. The plates were stored refrigerated until analysis.
Data Analysis: Peak area ratios for IS-normalized test article and control article counts were used to calculate the percent remaining relative to the time zero (T0) value. As appropriate, results were plotted and further analyzed to calculate half-life (T1/2) values.
Mean peak area ratios were used to calculate the % remaining relative to the T0 value:
In this study, human, cynomolgus monkey, beagle dog, wistar hannover rat, and balb/c plasma stability was determined. Table 28 describes the results of the human plasma stability at 2 μM concentration and anti-coagulant K2-EDTA from 10 to 120 min. Table 29 describes the results of the cynomolgus monkey plasma stability at 2 μM concentration and anti-coagulant K2-EDTA. Table 30 describes the results of the beagle dog plasma stability at 2 μM concentration and anti-coagulant K2-EDTA. Table 31 describes the results of the wistar hannover rat plasma stability at 2 μM concentration and anti-coagulant K2-EDTA. Table 32 describes the results of the balb/c plasma stability at 2 μM concentration and anti-coagulant K2-EDTA.

[4] = Hepatocyte stability, balb/c mouse; type: in vitro ADME; conditions: 0.5 million cells/ml; for CLint scaled at 2 μM: BALB/c, mouse, hepatocytes; for half-life at 2 μM: balb/c mouse hepatocytes
Method: as §1

[5] = test system: wistar hannover rat hepatocytes; experiment: Hepatocyte stability, wistar hannover rat; type: in vitro ADME; conditions: 2 μM, 0.5 million cells/ml
Method: as §1

CYP3A4 = CYP3A4 (Homo sapiens, UniProt P08684); experiment: CYP450 panel inhibition in human liver microsomes, 3A4 (midazolam / testosterone); conditions: 10 μM; for CYP-3A4 (Midazolam) mean percentage CYP inhibition: substrate midazolam; for CYP-3A4 (Testosterone) mean percentage CYP inhibition: substrate testosterone
Sequence of CYP3A4 (P08684 whole entry): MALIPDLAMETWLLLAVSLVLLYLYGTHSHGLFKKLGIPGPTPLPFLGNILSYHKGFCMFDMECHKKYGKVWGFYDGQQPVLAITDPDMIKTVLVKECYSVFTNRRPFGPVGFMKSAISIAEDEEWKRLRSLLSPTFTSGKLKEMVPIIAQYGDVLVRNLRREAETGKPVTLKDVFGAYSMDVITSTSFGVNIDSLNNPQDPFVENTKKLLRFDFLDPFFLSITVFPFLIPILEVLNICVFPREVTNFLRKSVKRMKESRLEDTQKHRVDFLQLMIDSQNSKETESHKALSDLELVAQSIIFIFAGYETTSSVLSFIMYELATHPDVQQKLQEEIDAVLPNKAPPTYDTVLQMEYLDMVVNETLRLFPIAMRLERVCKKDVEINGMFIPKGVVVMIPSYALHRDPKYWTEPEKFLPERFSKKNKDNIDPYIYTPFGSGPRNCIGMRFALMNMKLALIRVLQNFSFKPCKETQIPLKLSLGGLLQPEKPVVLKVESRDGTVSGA

[6] = Kinetic solubility (PBS pH 7.4; 4 hr); type: physicochemical; conditions: PBS buffer, pH 7.4, aqueous buffer, kinetic from dmso stock; free base (Table 19); read-out: Kinetic Solubility
Method: The plates were shaken for 4 h at room temperature in an Eppendorf Thermomixer. After incubation, the plates were centrifuged for 20 minutes at 4680 rpm. From the supernatant, 150 μL was transferred to a new 96 well plate and 50 μL DMSO was added to ensure continued dissolution. Samples were measured on LC-UV at injection volumes of 1 and 8 μL. Peak areas were determined and compared to peak areas obtained using calibration curves of the test compounds in DMSO.

[7] = test system: cynomolgus monkey hepatocytes; experiment: Hepatocyte stability, cynomolgus monkey; type: in vitro ADME; conditions: 2 μM, 0.5 million cells/ml
Method: as §1

beagle dog hepatocytes = experiment: Hepatocyte stability, beagle dog; type: in vitro ADME; conditions: 2 μM, 0.5 million cells/ml
Method: as §1

[8] = read-out: CLint (L/hr/kg) (converted)

`CCN(C)Cc1c(Cc2cccc(NS(=O)(=O)NC)c2Cl)c(=O)oc2cc(OC(=O)N(C)C)ccc12` [Compound 245, 3-(2-chloro-3-((N-methylsulfamoyl)amino)benzyl)-4-((ethyl(methyl)amino)methyl)-2-oxo-2H-chromen-7-yl dimethylcarbamate] gave a half-life at 2 μM [1] of 0.703 h, a CLint scaled at 2 μM [1, 8] of 5.32 L/h/kg and a CLint scaled at 2 μM ([1]; read-out: CLint (mL/min/kg)) of 5.32 L/h/kg. For the same compound, the Papp A→B at 2 h, 10 μM [2] was 11.9 ×10⁻⁶ cm/s, the Papp B→A at 2 h, 10 μM [2] was 6.87 ×10⁻⁶ cm/s and the efflux ratio at 2 h, 10 μM [2] was 0.578. For the same compound, the Papp at 4 h, 50 μM (PAMPA (pH 7.4)) was 53 ×10⁻⁶ cm/s, the half-life at 2 μM [3] was 32.2 h and the “% Remaining at T120” value [3] was 96.6%. The CLint scaled at 2 μM [4, 8] was 7.54 L/h/kg, the CLint scaled at 2 μM ([4]; read-out: CLint (mL/min/kg)) was 7.56 L/h/kg and the half-life at 2 μM [4] was 2.17 h. The “% Remaining At T120” value [5] was 15.7%, the “CYP-3A4 (Midazolam) mean percentage CYP inhibition” value (CYP3A4) was 42.3% and the “CYP-3A4 (Testosterone) mean percentage CYP inhibition” value (CYP3A4) was 72.8%. For the same compound, the solubility kinetic at 4 h [6] was 28 µM (≈ 15 µg/mL), the “% Remaining At T120” value [7] was 3.3% and the “% Remaining At T120” value (beagle dog hepatocytes) was 23.4%.

With `CNS(=O)(=O)Nc1cccc(Cc2c(CN(C)C)c3ccc(OC(=O)N(C)C)cc3oc2=O)c1Cl` [Compound 274, 3-(2-chloro-3-((N-methylsulfamoyl)amino)benzyl)-4-((dimethylamino)methyl)-2-oxo-2H-chromen-7-yl dimethylcarbamate] the half-life at 2 μM [1] was 1.87 h, the CLint scaled at 2 μM [1, 8] was 2.01 L/h/kg and the CLint scaled at 2 μM ([1]; read-out: CLint (mL/min/kg)) was 2.01 L/h/kg. It also gave a Papp A→B at 2 h, 10 μM [2] of 16.8 ×10⁻⁶ cm/s, a Papp B→A at 2 h, 10 μM [2] of 8.95 ×10⁻⁶ cm/s and an efflux ratio at 2 h, 10 μM [2] of 0.533. The half-life at 2 μM [3] was 42.3 h, the “% Remaining at T120” value [3] was 97.7% and the CLint scaled at 2 μM [4, 8] was 5.23 L/h/kg. The CLint scaled at 2 μM ([4]; read-out: CLint (mL/min/kg)) was 5.23 L/h/kg, the half-life at 2 μM [4] was 3.13 h and the “% Remaining At T120” value [5] was 34.9%. For the same compound, the “CYP-3A4 (Midazolam) mean percentage CYP inhibition” value (CYP3A4) was 20.1%, the “CYP-3A4 (Testosterone) mean percentage CYP inhibition” value (CYP3A4) was 50.4% and the solubility kinetic at 4 h [6] was 78 µM (≈ 40.8 µg/mL). For the same compound, the “% Remaining At T120” value [7] was 24.5% and the “% Remaining At T120” value (beagle dog hepatocytes) was 51.9%.

Compound `CNS(=O)(=O)Nc1cccc(Cc2c(CN3CCNCC3)c3ccc(OC(=O)N(C)C)cc3oc2=O)c1Cl` [Compound 246, 3-(2-chloro-3-((N-methylsulfamoyl)amino)benzyl)-2-oxo-4-(piperazin-1-ylmethyl)-2H-chromen-7-yl dimethylcarbamate hydrochloride] has a half-life at 2 μM [1] of 28.8 h, a CLint scaled at 2 μM [1, 8] of 0.13 L/h/kg and a CLint scaled at 2 μM ([1]; read-out: CLint (mL/min/kg)) of 0.13 L/h/kg. It also gave a Papp A→B at 2 h, 10 μM [2] of 4.16 ×10⁻⁶ cm/s, a Papp B→A at 2 h, 10 μM [2] of 6.99 ×10⁻⁶ cm/s and an efflux ratio at 2 h, 10 μM [2] of 1.68. The Papp at 4 h, 50 μM (PAMPA (pH 7.4)) was 2 ×10⁻⁶ cm/s, the half-life at 2 μM [3] was > 2 h and the “% Remaining at T120” value [3] was 99.3%. The CLint scaled at 2 μM [4, 8] was 3.62 L/h/kg, the CLint scaled at 2 μM ([4]; read-out: CLint (mL/min/kg)) was 3.62 L/h/kg and the half-life at 2 μM [4] was 4.53 h. For the same compound, the “% Remaining At T120” value [5] was 63.0%, the “CYP-3A4 (Testosterone) mean percentage CYP inhibition” value (CYP3A4) was 24.6% and the “% Remaining At T120” value [7] was 81.4%. For the same compound, the “% Remaining At T120” value (beagle dog hepatocytes) was 79.6%.

With `CCN(C)Cc1c(Cc2cccc(NS(=O)(=O)NC)c2F)c(=O)oc2cc(OC(=O)N(C)C)c(F)cc12` [Compound 238] the half-life at 2 μM [1] was 1.07 h, the CLint scaled at 2 μM [1, 8] was 3.51 L/h/kg and the CLint scaled at 2 μM ([1]; read-out: CLint (mL/min/kg)) was 3.5 L/h/kg. It also gave a Papp A→B at 2 h, 10 μM [2] of 14.2 ×10⁻⁶ cm/s, a Papp B→A at 2 h, 10 μM [2] of 13.5 ×10⁻⁶ cm/s and an efflux ratio at 2 h, 10 μM [2] of 0.956. For the same compound, the Papp at 4 h, 50 μM (PAMPA (pH 7.4)) was 62 ×10⁻⁶ cm/s, the half-life at 2 μM [3] was 29.8 h and the “% Remaining at T120” value [3] was 95.5%. It also gave a CLint scaled at 2 μM [4, 8] of 6.57 L/h/kg, a CLint scaled at 2 μM ([4]; read-out: CLint (mL/min/kg)) of 6.6 L/h/kg and a half-life at 2 μM [4] of 2.48 h. For the same compound, the “% Remaining At T120” value [5] was 23.0%, the solubility kinetic at 4 h [6] was 40 µM (≈ 21.5 µg/mL) and the “% Remaining At T120” value [7] was 23.3%. The “% Remaining At T120” value (beagle dog hepatocytes) was 31.1%.
